Assay results taken from patent US8222260B2, “Substituted 6-anilinopurine derivatives as inhibitors of cytokinin oxidase/dehydrogenase and preparations containing these derivatives” (Univerzita Palackego V Olomouci, priority 2007, dated 2012).

Columns and labels:
[1] = system: Human diploid fibroblasts HCA; experiment: Anti-aging activity: senescence-associated beta-galactosidase in human fibroblasts; assay type: cell-based
Description: In this example, effects of the compounds of this invention on the activity of a senescence biomarker senescence-associated β-galactosidase was studied. Human diploid fibroblasts HCA of various passage levels were used for this purpose. The tested compounds were added to the medium at each passage. After the incubation period, cells were washed with PBS and fixed with 2% formaldehyde and 0.2% glutaraldehyde in PBS. After another wash with PBS, they were incubated with the staining solution comprising potassium ferricyanide (5 mM), potassium ferrocyanide (5 mM), MgCl2 (2 mM), X-gal (5-bromo-4-chloro-3-indolyl-β-D-galactopyranoside) (1 mg/ml), in citric/phosphate buffer (pH 6.0) at 37° C. (without CO2) for at least 1 hour. Following the incubation period, the numbers of cells expressing senescence-associated β-galactosidase (blue cells) were counted using light microscope.

[2] = system: Human diploid fibroblasts SNF25; experiment: In vitro toxicity by evaluation of growth curve; assay type: cell-based; conditions: 0-12.5 μM, 12 days, SNF25 passage 27
Description: Human diploid fibroblasts SNF25 (passage 27) were seeded in 24-well plate (10.000 cells/well). The cultivation medium (DMEM containing 5 g/l glucose, 2 mM glutamin, 100 U/ml penicillin, 100 μg/ml streptomycin and 10% fetal calf serum) was removed and replaced with the cultivation medium containing the tested compound in concentration range of 0-12.5 μM. Each concentration was tested in triplicate. The cell number was counted during next 12 days.

[3] = system: Human diploid fibroblasts BJ; experiment: Attachment frequency test (adherence of fibroblasts); assay type: cell-based; conditions: 0-25 μM, attached cells counted after 6 hours, BJ passage 19
Description: Attachment frequency test is one of the methods for evaluation of acute toxicity of compounds against adherent cells. The tested compound is added into the medium with a defined number of trypsinised cells and after certain time the number of attached cells is counted. Human diploid fibroblasts BJ (passage 19) and standard cultivation medium (DMEM with 5 g/l glucose, 2 mM glutamin, 100 U/ml penicillin, 100 μg/ml streptomycin and 10% fetal calf serum) were used. The attached cells were counted after 6 hours. The experiment was done in three repetitions. […] Thus the compound doesn't show acute toxicity against fibroblasts.

[4] = system: Human diploid fibroblasts BJ; experiment: Viability of human diploid fibroblasts by MTT assay; assay type: cell-based; conditions: 0-25 μM, 72 hours, BJ passage 19
Description: MTT is a standard colorimetric assay for measurement of proliferation and survival of the cells. Yellow MTT is reduced into violet formazan in metabolically active cells. The amount of the resulting formazan is measured by spectrophotometry. Human diploid fibroblasts BJ (passage 19) were seeded in 96-well plate (5.000 cells per well). After 6 hours, the cultivation medium (DMEM containing 5 g/l glucose, 2 mM glutamine, 100 U/ml penicillin, 100 μg/ml streptomycin and 10% fetal calf serum) was removed and fresh medium containing a test compound in concentrations 0-25 μM was added. Each concentration was tested in 5 replicates. MTT was added to the cells after 72 hours into final concentration of 0.5 mg/ml. Incubation time was 3 hours.

[5] = system: CKX1 overproducing Arabidopsis seedlings; experiment: CKX1 overproducing Arabidopsis seedlings grown in vitro on MS medium, phenotype reversion; assay type: in vivo; conditions: in vitro on MS medium containing 0.1 μM compound
[6] = system: WT Arabidopsis plants; experiment: Prolonged treatment of WT Arabidopsis plants, flowering; assay type: in vivo
Description: (§1) Transgenic 35S:AtCKX1 Arabidopsis and 35S:AtCKX1 and 35S:AtCKX2 tobacco seedlings grown in soil in the greenhouse were systematically treated with 10 μM of compound 12. Areal parts of the wild type and transgenic seedlings were sprayed every second day for 1 month with aqueous solution of compound 12 containing 0.01% Silwet L-77 wetting agent.
Flowers had aborted anthers and were sterile.

[7] = system: Transgenic 35S:AtCKX1 Arabidopsis seedlings; experiment: Foliar spray of CKX overproducing Arabidopsis seedlings grown in soil, phenotype complementation; assay type: in vivo; conditions: 10 μM sprayed every second day for 1 month
Description: as §1

[8] = system: 35S:AtCKX1 and 35S:AtCKX2 tobacco seedlings; experiment: Foliar spray of CKX overproducing tobacco seedlings grown in soil, phenotype complementation and root system; assay type: in vivo
Description: as §1

c1coc(CNc2ncnc3nc[nH]c23)c1 [Kinetin, 6-furfurylaminopurine, reference compound]
Senescent Cells (%) HCA passage 25 ([1]; passage 25, cells expressing senescence-associated beta-galactosidase): 3%
Senescent Cells (%) HCA passage 50 ([1]; passage 50, cells expressing senescence-associated beta-galactosidase): 5%
Senescent Cells (%) HCA passage 80 ([1]; passage 80, cells expressing senescence-associated beta-galactosidase): 38%

Clc1nc(Nc2ccccc2)c2[nH]cnc2n1 [Compound 1, 2-Chloro-6-anilinopurine]
growth curve (cell number) [2]: not toxic against human diploid fibroblasts
Attachment percentage [3]: not significantly influenced
viability of cells (MTT) [4]: not toxic for human diploid fibroblasts

COc1cccc(Nc2nc(Cl)nc3nc[nH]c23)c1 [Compound 12, 2-Chloro-6-(3-methoxyanilino)purine]
reversion of WT phenotype [5]: reversion of WT phenotype appeared
effect on flowering [6]: altered development of flowers and inhibition of fertilisation
complementation of wild-type phenotype (release from growth inhibition) [7]: restauration of wild type phenotype
complementation of wild-type phenotype (release from growth inhibition) ([8]; 35S:AtCKX1 and 35S:AtCKX2 tobacco, 10 μM sprayed every second day for 1 month): restauration of wild type phenotype
effect of foliar application on root system ([8]; transgenic tobaccos, foliar application, 10 μM): enhancement of the root system
